Test results reported in PMC8438977, “Isolation of bioactive compounds from medicinal plants used in traditional medicine: Rautandiol B, a potential lead compound against Plasmodium falciparum” (BMC Complementary Medicine and Therapies, 2021).
Values after ≈ are worked out from the molar mass of the structure shown. Like-named read-outs stand apart in the source and are kept apart here.

How the values were obtained:
[1] = tested on: T. brucei rhodesiense (STIB-900); test: Anti-trypanosomal assay (Alamar Blue, 72 h); format: cell-based, Trypanosoma brucei rhodesiense
Procedure: T. brucei rhodesiense (STIB-900) was maintained in Minimal Essential Medium (MEM) with Earle’s salts supplemented with 3 g/L sodium bicarbonate, 4.5 g/L glucose, 25 mM HEPES, pH 7.3, 0.05 mM bathocuproinedisulfonic acid disodium salt, 1.5 mM L-cysteine, 1 mM hypoxanthine, 0.16 mM thymidine, 1 mM sodium pyruvate, 0.2 mM 2-mercaptoethanol, 1% MEM non-essential amino acid, and 15% heated fetal bovine serum, at 37 °C in a 5% CO2 incubator. To assay anti-Tbr activity, a modified reported protocol was used. Briefly, 2 × 10^4 T. brucei rhodesiense parasites in 175 μL culture media were incubated with 25 μL of varying concentrations of each compound in a 96-well plate under the same culture conditions. Following 72 h incubation, 20 μL Alamar Blue (a resazurin solution) was added in each well. The mixture was further incubated for 3 h. The fluorescence signals were measured by a spectrofluorometer at ex530/em585 nm.

[2] = tested on: Plasmodium falciparum K1CB1; test: Antimalaria assay, [3H] hypoxanthine incorporation, K1CB1 strain; format: cell-based; settings: for IC50: Plasmodium falciparum, read-out: P. f (IC50 μM) K1CB1
Procedure: (§1) Plasmodium falciparum TM4/8.2 and K1CB1 strains were maintained in RPMI 1640 medium supplemented with 8% human serum, 2.5 mM HEPES and 2 g/L sodium bicarbonate. Parasite cultures were incubated at 37 °C in a 3% CO2 incubator. The crude extracts/pure compounds were tested against TM4/8.2 and K1CB1 P. falciparum in vitro by the modified [^3H] hypoxanthine incorporation assay. Briefly, stock solutions of the crude extracts or pure compounds were prepared in DMSO. Various concentrations of the samples were incubated with malaria parasites with a final volume of 225 μL, 1% parasitemia, 1.5% hematocrit, 0.1% dimethylsulfoxide (DMSO) in 96-well plates. Plates were incubated for 16–18 h. Then, 25 μL [^3H]-hypoxanthine solution was added and incubated for 20 h. The parasites were harvested onto a UniFilter-96 GF/B plate (PerkinElmer, USA). The filters in the plates were air-dried, and then 25 μL of liquid scintillation fluid (Microscint, Packard) was added. The radioactivity was then measured using a microplate scintillation counter (TopCount, Packard). The IC50 values of the crude extracts/ pure compounds were determined.

[3] = molecular target: T1, α-glucosidase (AG) (Saccharomyces cerevisiae, UniProt P53341); test: biochemical; set-up: species or system S. cerevisiae; settings: for IC50: in 50% DMSO; for inhibition at 250 µg/mL: samples 250 μg/mL in 50% DMSO, read-out: % Inhibition (AGI activity)
T1 construct: purchased Sigma
T1 sequence (P53341 whole entry): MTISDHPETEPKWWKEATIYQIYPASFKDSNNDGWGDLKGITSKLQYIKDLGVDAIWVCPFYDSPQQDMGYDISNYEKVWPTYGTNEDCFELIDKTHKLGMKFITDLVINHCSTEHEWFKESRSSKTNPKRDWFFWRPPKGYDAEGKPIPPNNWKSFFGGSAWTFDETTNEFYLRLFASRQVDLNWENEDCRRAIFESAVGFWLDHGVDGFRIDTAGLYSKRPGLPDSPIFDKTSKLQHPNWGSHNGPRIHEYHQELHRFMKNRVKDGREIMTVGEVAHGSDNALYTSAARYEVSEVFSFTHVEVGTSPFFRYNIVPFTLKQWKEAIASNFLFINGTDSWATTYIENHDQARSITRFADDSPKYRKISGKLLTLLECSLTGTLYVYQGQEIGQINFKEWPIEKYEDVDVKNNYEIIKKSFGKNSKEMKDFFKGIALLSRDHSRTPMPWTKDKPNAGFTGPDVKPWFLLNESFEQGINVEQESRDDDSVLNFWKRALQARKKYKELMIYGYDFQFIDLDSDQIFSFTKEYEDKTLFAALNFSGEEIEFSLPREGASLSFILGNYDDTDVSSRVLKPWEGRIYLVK
Procedure: AGI values of extracts and pure phytochemicals were quantitatively determined in a 96-well plastic plate according to the method described by Nguyen et al.. The enzyme was incubated with the samples dissolved in DMSO for 5 min before adding the substrate. The inhibition was measured spectrophotometrically in 20 mM sodium phosphate buffer pH 6.0 at 37 °C using 3.0 mM p-nitrophenyl α-D-glucopyranoside (Sigma) as the substrate and 0.25 units/mL of AG from S. cerevisiae (Sigma). The absorbance at 405 nm was measured using a microplate reader (BioTek ELx808 microplate reader, USA).

[4] = tested on: Mycobacterium tuberculosis H37Rv (ATCC 27294); test: Mycobacterium tuberculosis assay (Microplate Alamar Blue Assay, MIC); format: cell-based; settings: pure compounds and controls, read-out: MTB H37Rv (MIC μM)
[5] = tested on: Plasmodium falciparum TM4/8.2; test: Antimalaria assay, [3H] hypoxanthine incorporation, TM4/8.2 strain; format: cell-based
Procedure: as §1

[6] = earlier reports; cited from earlier work
[7] = tested on: BHK21 cells; set-up: method as in PMID 32798746; settings: cited from earlier work
[8] = tested on: VERO cells; set-up: method as in PMID 32798746; settings: cited from earlier work
[9] = molecular target: α-amylase (AA); test: α-amylase inhibitory activity (AAI), starch-iodine assay; format: biochemical; settings: in 50% DMSO
Procedure: AAI values were determined using a microplate-based starch–iodine assay. Assay reactions were initiated by adding 40 μL of starch (Sigma S-2630) solution (2.0 g/L) and 40 μL of enzyme in 0.1 M phosphate buffer at pH 7.0 to microplate wells. The enzyme was incubated with the samples for 5 min before adding the substrate. To minimize evaporative loss during incubation, a plastic mat was used to cover the microplate. […] Following color development, the absorbance at 580 nm was measured using a microplate reader (Bio-TEK ELx808 microplate reader, USA).

[10] = Trypanosoma brucei, RHODESIENSE, 72 h, pure compounds and control; 72 h; read-out: T. br (IC50 μM)
[11] = pure compounds and controls, strain K1CB1
[12] = pure compounds and controls, strain TM4/8.2, read-out: P. f (IC50 μM) TM4/8.2
[13] = read-out: P. f (IC50 μM) TM4/8.2
[14] = Trypanosoma brucei, RHODESIENSE; pure compounds and control; 72 h; read-out: T. br (IC50 μM)
[15] = pure compounds and control; 72 h; read-out: T. br (IC50 μM)

SMILES | IC50 [1, 10] | IC50 [2, 11] | inhibition at 250 µg/mL [3] | MIC [4] | IC50 [5, 12] | further results
OC[C@H]1O[C@@H](OCCc2ccc(O)cc2)[C@H](O)[C@@H](O)[C@@H]1O [Compound 4, salidroside] | > 100 µM | > 100 µM | 47.7 ± 1.8% | > 20 µM | > 100 µM | IC50 [3]: 1380 µM
COc1cc2c(cc1C1COc3cc4occc4cc3C1=O)OCO2 (stereo not drawn) [Compound 11, neotenone] | 17 ± 1.83 µM | > 31 µM | – | > 62 µM | > 31 µM | melting point: 174 to 175 °C
COc1cc2c(cc1-c1cc3cc4ccoc4cc3oc1=O)OCO2 [Compound 10, pachyrrhizine] | – | – | – | > 64.7 µM | – | IC50 [2]: > 32.3 µM; IC50 [5, 13]: > 32.3 µM
O=C1c2cc3ccoc3cc2O[C@@H]2COc3cc4c(cc3[C@H]12)OCO4 [Compound 14, dolineon] | – | – | 54.2 ± 8.9% | > 59.9 µM | – | IC50 [1, 14]: 18.7 ± 3.2 µM; IC50 [2]: > 29.6 µM; IC50 [3]: 660 µM; IC50 [5, 13]: > 29.6 µM
C=C(C)[C@H]1Cc2c(ccc3c2O[C@@H]2COc4cc(OC)c(OC)cc4[C@@H]2C3=O)O1 [Compound 20, rotenone] | – | – | – | > 52.3 µM | – | IC50 ([1]; Trypanosoma brucei, RHODESIENSE, 72 h, read-out: T. br (IC50 μM)): 7.51 ± 0.17 µM; IC50 [2]: > 26.2 µM; cytotoxicity [6]: cytotoxic; IC50 [5, 13]: > 26.2 µM
COc1cc2c(cc1-c1coc3cc4occc4cc3c1=O)OCO2 [Compound 22, dehydroneotenone] | – | > 30.9 µM | – | > 61.7 µM | > 30.9 µM | –
C=C(C)C1Cc2c(ccc3c2O[C@@H]2COc4cc(OC)c(OC)cc4[C@]2(O)C3=O)O1 (stereo partly drawn) [Compound 21, 12a-hydroxyrotenone] | – | – | 19.9 ± 11.4% | > 55.2 µM | – | IC50 [1, 14]: 8.63 ± 1.14 µM; IC50 [2]: > 27.6 µM; cytotoxicity [6]: cytotoxic; IC50 [5, 13]: > 27.6 µM
CC(C)(O)C1Cc2cc3c(cc2O1)OC[C@H]1c2ccc(O)cc2O[C@@H]31 (stereo partly drawn) [Compound 24, rautandiol B] | 23.5 ± 1.59 µM | 0.74 ± 0.29 µM | 29.3 ± 3.1% | > 20 µM | 0.4 ± 0.07 µM | cytotoxicity on BHK21 cells [7]: non-cytotoxic; SR (safety ratio), P. falciparum K1CB1 ([2]; safety ratio): 133; melting point: 209 to 213 °C; cytotoxicity on VERO cells [8]: non-cytotoxic
CO[C@H]1/C=C/O[C@@]2(C)Oc3c(C)c(O)c4c(O)c(c(/C=N/N5CCN(C)CC5)c(O)c4c3C2=O)NC(=O)/C(C)=C\C=C\[C@H](C)[C@H](O)[C@@H](C)[C@@H](O)[C@@H](C)[C@H](OC(C)=O)[C@@H]1C [Rifampin, reference compound] | – | – | – | 0.08 µM (≈ 0.0658 µg/mL) | – | –
c1cc2cc3c(cc2o1)OCc1c-3oc2cc3c(cc12)OCO3 [Compound 5, neoduleen] | – | > 31 µM | – | > 62.1 µM | > 31 µM | –
COc1ccc2c(c1)OCC(c1cc3c(cc1OC)OCO3)C2=O (stereo not drawn) [Compound 12, 7-methoxy-3-(6-methoxybenzo [d] [1,3]dioxol-5-yl) chroman-4-one] | – | – | 17.7 ± 0.3% | – | – | melting point: 133 to 135 °C
NNC(=O)c1ccncc1 [Isoniazid, reference compound] | – | – | – | 0.02 µM (≈ 0.00274 µg/mL) | – | –
O=c1c(O)c(-c2ccc(O)cc2)oc2cc(O)cc(O)c12 [Compound 1, kempherol] | 10.3 ± 0.38 µM | > 50 µM | – | > 20 µM | > 50 µM | IC50 [1, 15]: 8.74 ± 0.49 µM; SR (safety ratio), T. brucei rhodesiense ([1]; safety ratio): 3.3
CC(C)=CCc1cc2c(cc1O)OC[C@H]1c3cc4c(cc3O[C@@H]21)OCO4 | – | – | – | – | – | SR (safety ratio), T. brucei rhodesiense [1]: > 5.83; IC50 [1, 15]: 4.87 ± 0.49 µM
O=c1c(O)c(-c2ccc(O)c(O)c2)oc2cc(O)cc(O)c12 [Compound 2, quercetin] | 8.44 ± 0.16 µM | > 50 µM | – | > 20 µM | > 50 µM | IC50 [1, 15]: 8.91 ± 0.03 µM; SR (safety ratio), T. brucei rhodesiense ([1]; safety ratio): 4.52
COc1ccc(C2COc3cc4occc4cc3C2=O)c(OC)c1OC (stereo not drawn) [Compound 16, nepseudin] | – | > 28.2 µM | – | > 56.4 µM | > 28.2 µM | –
O=C1c2cc3ccoc3cc2O[C@]2(O)COc3cc4c(cc3[C@H]12)OCO4 [Compound 13, 12a-hydroxydolineon] | – | – | – | – | – | melting point: 155 to 156 °C
CC(C)=CCc1cc2c(cc1O)OC[C@@H]1c3cc4c(cc3O[C@H]21)OCO4 [Compound 15, (−)-2-isopentenyl-3-hydroxy-8-9-methylenedioxypterocarpan] | 4.87 ± 0.49 µM | > 28.4 µM | 31.5 ± 2.1% | > 56.8 µM | > 28.4 µM | SR (safety ratio), T. brucei rhodesiense ([1]; safety ratio): > 5.83
CC1(C)Oc2cc3c(cc2CC1O)[C@@H]1Oc2cc(O)ccc2[C@@H]1CO3 (stereo partly drawn) [Compound 23, rautandiol A] | – | – | 83.9 ± 1% | – | – | IC50 [3]: 280 µM; melting point: 194 to 196 °C
CCc1nc(N)nc(N)c1-c1ccc(Cl)cc1 [Pyrimethamine, reference compound] | – | 23.2 ± 2.24 µM | – | – | 0.095 ± 0.02 µM | –
COc1cc2c(cc1O)[C@H]1Oc3cc4c(cc3[C@H]1CO2)OCO4 [Compound 19, (−)-2-hydroxypterocarpin] | – | > 28.4 µM | – | > 56.8 µM | > 28.4 µM | melting point: 223 to 225 °C
c1cc2cc3c(cc2o1)OC[C@H]1c2cc4c(cc2O[C@@H]31)OCO4 [Compound 6, neodulin] | – | > 32.5 µM | – | > 64.9 µM | > 32.5 µM | –
CC1(C)N=C(N)N=C(N)N1c1ccc(Cl)cc1 [Cycloguanil, reference compound] | – | 10.7 ± 1.62 µM | – | – | 0.076 ± 0.016 µM | –
Oc1cc(O)c2c(c1)O[C@H](c1ccc(O)c(O)c1)[C@@H](O)C2 [Compound 3, (+)-catechin] | > 100 µM | > 100 µM | 97.5 ± 0.6% | > 20 µM | – | IC50 [3]: 360 µM; IC50 [9]: 2260 µM; IC50 [5, 13]: > 100 µM
N=C(N)c1ccc(OCCCCCOc2ccc(C(=N)N)cc2)cc1 [Pentamidine, reference compound] | 0.007 ± 4e-05 µM | – | – | – | – | –
